Measured values reported in patent US11827703B2, “Compositions and methods related to anti-CD19 antibody drug conjugates” (LegoChem Biosciences, Inc., priority 2018, dated 2023).

What was measured:
Ramos = experiment: Anti-proliferation assay (CellTiter-Glo), Ramos; type: cell-based, human; settings: 96 hour treatment
Experimental: (§1) Commercially available 6 B cell lymphoma cancer cell lines DOHH-2 (DSMZ, #ACC 47), NALM-6 (DSMZ, #ACC 58), Ramos (ECACC, #85030802), SU-DHL-6 (ATCC, #CRL-2959), WSU-DLCL2 (DSMZ, #ACC 575) and WSU-NHL (DSMZ, #ACC 58) were used. SG2057 was used as the drug, free toxin. Each of the cancer cell lines was seeded in a 96-well plate at 2000 to 10000 per well for the 96 hour treatment group, incubated for 2 hours, and then treated with drug and ADC at a concentration of from 0.00025 to 100 nM (5-fold times serial dilutions). After 96 hours, the number of living cells was quantified using CellTiter-Glo Luminescent cell viability assay (Promega-G7573). Inhibition rate (IR) of the drug and ADC were determined by the following formula: IR (%)=(1−(RLU compound−RLU blank)/(RLU control−RLU blank))*100%. The inhibitions of different dose of samples were calculated in Excel file, and then were used to plot inhibition curve and evaluate related parameters, such as Bottom (%), Top (%) and Relative IC50. The IC50 for each experiment and treatment was calculated (See table below).

SU-DHL-6 = experiment: Anti-proliferation assay (CellTiter-Glo), SU-DHL-6; type: cell-based, human; settings: SU-DHL-6, 96 hour treatment
Experimental: as §1

WSU-DLCL2 = experiment: Anti-proliferation assay (CellTiter-Glo), WSU-DLCL2; type: cell-based; settings: WSU-DLCL2, 96 hour treatment
Experimental: as §1

NALM6 = experiment: Anti-proliferation assay (CellTiter-Glo), NALM6; type: cell-based, human; settings: NALM6, 96 hour treatment
Experimental: as §1

DOHH2 = experiment: Anti-proliferation assay (CellTiter-Glo), DOHH2; type: cell-based; settings: DOHH2, 96 hour treatment
Experimental: as §1

WSU-NHL = experiment: Anti-proliferation assay (CellTiter-Glo), WSU-NHL; type: cell-based; settings: 96 hour treatment
Experimental: as §1

[1] = test system: Ramos Burkitt's lymphoma cells; experiment: Ramos non-Hodgkin lymphoma xenograft model; settings: Ramos s.c. xenograft, i.v. treatment
Experimental: Anti-tumor activity of anti-CD19 (9G8) Antibody Drug Conjugate was evaluated in immunodeficient CB-17 scid mice subcutaneously engrafted with Ramos Burkitt's lymphoma cells.
CB17-SCID mice (Charles River), aged 7 weeks, were implanted subcutaneously (s.c.) in the right flank with 5×10^6 Ramos cells (obtained from ATCC). Tumor volumes (calculated using the formula TV=(0.5×[length×width^2]) were measured by digital caliper 3 times a week and mice were recruited for treatment when tumor volumes reached 200-250 mm^3. Mice were assigned to different groups (see table below) in order to obtain homogeneous mean tumor volumes between cohorts (n=7-8 mice per group. Mean tumor volume: hIgG1 control 1 mg/kg, 1 inj.: 243 mm^3±26; anti-CD19 CaaX 1 mg/kg, 1 inj.: 233 mm^3±18; hIgG1 ADC 1 mg/kg, 1 inj.: 224 mm^3±20; anti CD19 ADC 0.33 mg/kg, 1 inj.: 242 mm^3±28; anti CD19 ADC 0.66 mg/kg, 1 inj.: 234 mm^3±23; anti CD19 ADC 1 mg/kg, 1 inj.: 234 mm^3±31; anti CD19 ADC 0.33 mg/kg 1 inj./week during 3 weeks: 251 mm^3±25; rituximab 6 mg/kg, 1 inj.: 242 mm^3±31). Single dose or multiple dose (only for cohort anti-CD19 ADC 0.33 mg/kg 1×/week, 3 weeks) treatments were injected i.v. in the tail vein. Mice were then monitored for body weight 3 times a week and for tumor growth 3 times a week until the endpoint of the experiment (tumor volume=1500 mm^3).

cynomolgus CD19 = experiment: FACS binding to CHO cell line transfected with cynomolgus CD19; design: species or system cynomolgus monkey; settings: transfected CHO cynoCD19 cells, 10 to 0.01 μg/mL
Experimental: The ability of the anti-CD19 antibodies to bind human and/or cynomolgus monkey CD19 was evaluated.
In particular, the human IgG1 5F5, 7F11, 9G8, F6, 7F1, and 10D8 anti-CD19 antibodies were evaluated for their abilities to bind a CHO cell line transfected with cynomolgus CD19 and a negative control cell line (CHO). All incubations were prepared in FACS buffer (PBS, BSA 2%) at 4° C. Fc receptors on B cells were blocked with 10% mouse serum. Four doses of hIgG1 were tested: 10, 1, 0.1 and 0.01 μg/mL.

[2] = test system: human B lymphocyte cell lines: Raji, Ramos, Nalm6, Su-DHL6, Su-DHL4, and Mec2; experiment: FACS binding to human B lymphocyte cell lines; settings: comparison of cell lines
Experimental: The ability of various anti-CD19 antibodies of the disclosure to bind various human B lymphocyte cell lines was evaluated. In particular, the human IgG1 5F5, 7F11, 9G8, F6, 7F1, and 10D8 anti-CD19 antibodies were evaluated for their abilities to bind (i) six human B lymphocyte cell lines: Raji, Ramos, Nalm6, Su-DHL6, Su-DHL4, and Mec2, (ii) a CD19 silenced B cell line: Raji siRNA; and a negative cell line (Jurkat). All incubations were prepared in FACS buffer (PBS, BSA 2%) at 4° C. Fc receptors on B cells were blocked with 10% mouse serum. Four doses of hIgG1 were tested: 10, 1, 0.1 and 0.01 μg/mL. Cell surface bound hIgG1 were detected with a mouse anti-human IgG Fc-PE mAb.

Molecule: C=C1C[C@H]2C=Nc3cc(OCCCCCOc4cc5c(cc4OC)C(=O)N4CC(=C)C[C@H]4C=N5)c(OC)cc3C(=O)N2C1 [Free dPBD (SG2057), SG2057]
- IC50 (Ramos): 150 pM
- IC50 (SU-DHL-6): 50 pM
- IC50 (WSU-DLCL2): 4 pM
- IC50 (NALM6): 3.5 pM
- IC50 (DOHH2): 5.4 pM
- IC50 (WSU-NHL): 13 pM

Molecule: rituximab
- mice reaching the tumor size endpoint (tumor volume=1500 mm^3) [1]: four of seven mice reached the endpoint
- survival to day 70 ([1]; rituximab 6 mg/kg single): three survived to day 70

B1: F6: anti-CD19 antibody, VH SEQ ID NO: 12, VL SEQ ID NO: 14 (antibody, V domains shown)
VH: EVQLVQSGAEVKKPGESLKISCKGSGYSFTSYWIGWVRQMPGKGLEWMGIIYPGDSDTRYSPSFQGQVTISADKSISTAYLQWSSLKASDTAMYYCARVWYYDFWSGADAFDIWGQGTLVTVSS
VL: EIVMTQSPATLSVSPGERATLSCRASQSVSSNLAWYQQKPGQAPRLLIYGASTRATGIPARFSGSGSGTEFTLTISSLQSEDFAVYYCQQGSLEAPQTFGQGTKVEIK
- cross-reactivity with cynomolgus CD19 (cynomolgus CD19): slightly cross-reactive

B2: 9G8: anti-CD19 antibody, VH SEQ ID NO: 6, VL SEQ ID NO: 10 (antibody, V domains shown)
VH: EVQLVQSGAEVKKPGESLKISCKGSGYSFTSYWIGWVRQMPGKGLEWMGIIYPGDSDTRYSPSFQGQVTISADKSISTAYLQWSSLKASDTAMYYCARGVSGIYNLHGFDIWGQGTLVTVSS
VL: DIQMTQSPSSLSASVGDRVTITCRASQSISSYLNWYQQKPGKAPKLLIYAASSLQSGVPSRFSGSGSGTDFTLTISSLQPEDFATYYCQQGRFGSPFTFGQGTKVEIK
- cross-reactivity with cynomolgus CD19 (cynomolgus CD19): clearly cross-reactive

B3: 7F11: anti-CD19 antibody, VH SEQ ID NO: 6, VL SEQ ID NO: 8 (antibody, V domains shown)
VH: EVQLVQSGAEVKKPGESLKISCKGSGYSFTSYWIGWVRQMPGKGLEWMGIIYPGDSDTRYSPSFQGQVTISADKSISTAYLQWSSLKASDTAMYYCARGVSGIYNLHGFDIWGQGTLVTVSS
VL: DIQMTQSPSSLSASVGDRVTITCRASQSISSYLNWYQQKPGKAPKLLIYAASSLQSGVPSRFSGSGSGTDFTLTISSLQPEDFATYYCQQGMWDNPFTFGQGTKVEIK
- cross-reactivity with cynomolgus CD19 (cynomolgus CD19): slightly cross-reactive

B4: 5F5: anti-CD19 antibody, VH SEQ ID NO: 2, VL SEQ ID NO: 4 (antibody, V domains shown)
VH: EVQLVQSGAEVKKPGESLKISCKGSGYSFTSYWIGWVRQMPGKGLEWMGIIYPGDSDTRYSPSFQGQVTISADKSISTAYLQWSSLKASDTAMYYCARGISGIYNLHGFDIWGQGTLVTVSS
VL: DIQMTQSPSSLSASVGDRVTITCRASQSISSYLNWYQQKPGKAPKLLIYAASSLQSGVPSRFSGSGSGTDFTLTISSLQPEDFATYYCQQASLDSPLTFGQGTKVEIK
- cross-reactivity with cynomolgus CD19 (cynomolgus CD19): slightly cross-reactive

B5: 7F1: anti-CD19 antibody, VH SEQ ID NO: 16, VL SEQ ID NO: 18 (antibody, V domains shown)
VH: EVQLVQSGAEVKKPGESLKISCKGSGYSFTSYWIGWVRQMPGKGLEWMGIIYPGDSDTRYSPSFQGQVTISADKSISTAYLQWSSLKASDTAMYYCARGDYWTGFAYWGQGTLVTVSS
VL: QSVLTQPPSVSAAPGQKVTISCSGSSSNIGNNYVSWYQQLPGTAPKLLIYDNNKRPSGIPDRFSGSKSGTSATLGITGLQTGDEADYYCGTWDLGWNSVFGGGTKLTVL
- binding profile Nalm6 versus Raji cells [2]: bind better to Nalm6 than to Raji cells
- cross-reactivity with cynomolgus CD19 (cynomolgus CD19): did not bind

B6: 10D8: anti-CD19 antibody, VH SEQ ID NO: 20, VL SEQ ID NO: 22 (antibody, V domains shown)
VH: QVQLVQSGAEVKKPGSSVKVSCKASGGTFSSYAISWVRQAPGQGLEWMGGIIPIFGTANYAQKFQGRVTITADESTSTAYMELSSLRSEDTAVYYCARDRGYDYVWGSYRYGAFDIWGQGTLVTVSS
VL: QSALTQPASVSGSPGQSITISCTGTSSDVGGYNYVSWYQQHPGKAPKLMIYEVSNRPSGVSNRFSGSKSGNTASLTISGLQAEDEADYYCSSYDVWVPHMVFGGGTKLTVL
- binding profile Nalm6 versus Raji cells [2]: bind better to Nalm6 than to Raji cells
- cross-reactivity with cynomolgus CD19 (cynomolgus CD19): did not bind
